According to PMC12516390 (ACS Medicinal Chemistry Letters, 2025):
In brackets after ≈: the same amount, converted by molar mass. Like-named read-outs stand apart in the source and are kept apart here.

Key:
recombinant M^Pro = recombinant M^Pro (Severe acute respiratory syndrome coronavirus 2, UniProt P0DTD1); test: SARS-CoV-2 Mpro screening and IC50 determination (QS1 fluorogenic substrate, Drag assay); format: biochemical; conditions: for inhibition at 10 µM: read-out: M^Pro (%inh)@10μM
[1] = molecular target: Human Recombinant Cathepsin B (Homo sapiens, UniProt P07858); test: Cathepsin selectivity screening, Cat B (Z-Phe-Arg-AMC); format: biochemical; conditions: for IC50: Z-Phe-Arg-AMC substrate
[2] = molecular target: Human Recombinant Cathepsin S (Homo sapiens, UniProt P25774); test: Cathepsin selectivity screening, Cat S (Z-Val-Val-Arg-AMC); format: biochemical; conditions: Z-Val-Val-Arg-AMC substrate
[3] = molecular target: T1, Human Recombinant Cathepsin K (Homo sapiens, UniProt P43235); test: Cathepsin selectivity screening, Cat K (Z-Phe-Arg-AMC); format: biochemical; conditions: Z-Phe-Arg-AMC substrate
T1 sequence (P43235 115-329): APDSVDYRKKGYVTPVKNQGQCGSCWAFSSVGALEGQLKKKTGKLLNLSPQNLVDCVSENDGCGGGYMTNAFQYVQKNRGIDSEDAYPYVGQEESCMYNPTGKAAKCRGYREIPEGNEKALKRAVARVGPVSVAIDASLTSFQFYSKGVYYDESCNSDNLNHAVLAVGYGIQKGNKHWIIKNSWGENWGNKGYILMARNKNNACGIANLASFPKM

[4] = molecular target: Human Recombinant Cathepsin L (Homo sapiens, UniProt P07711); test: Cathepsin selectivity screening, Cat L (Z-Phe-Arg-AMC); format: biochemical; conditions: Z-Phe-Arg-AMC substrate
in vitro [5] = conditions: African monkey
in vitro [6] = conditions: mouse, microsomes, pH 7.4
physchem [7] = conditions: pH 7.4
in vitro [8] = conditions: human, microsomes, pH 7.4
physchem [9] = conditions: pH 7.4, aqueous buffer, kinetic from dmso stock
PL^Pro = PL^Pro (Severe acute respiratory syndrome coronavirus 2, UniProt P0DTD1); test: SARS-CoV-2 PLpro screening (Ac-LRGG-ACC substrate); format: biochemical; conditions: read-out: PL^Pro (%inh)@10μM
[10] = IC50 (μM) M^Pro, recombinant M^Pro, 20 μM QS1 substrate, Table 5
[11] = Table 5, read-out: IC50 (μM) CatB
[12] = Table 5, read-out: IC50 (μM) CatS
[13] = Table 5, read-out: IC50 (μM) CatK
[14] = Table 5, read-out: IC50 (μM) CatL
[15] = M^Pro IC50 (μM), recombinant M^Pro, 20 μM QS1 substrate, Table 3
[16] = M^Pro IC50 (μM), recombinant M^Pro, Table 6
[17] = M^Pro IC50 (μM), recombinant M^Pro, 20 μM QS1 (Ac-Abu-Tle-Leu-Gln-ACC) substrate, Table 1

Sequence of Human Recombinant Cathepsin S (P25774 115-331): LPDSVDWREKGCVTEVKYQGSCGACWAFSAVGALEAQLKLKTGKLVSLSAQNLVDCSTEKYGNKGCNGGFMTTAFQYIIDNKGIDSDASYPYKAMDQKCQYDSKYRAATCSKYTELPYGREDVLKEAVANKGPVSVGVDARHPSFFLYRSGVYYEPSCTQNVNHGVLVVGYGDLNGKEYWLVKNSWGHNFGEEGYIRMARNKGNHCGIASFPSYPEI
Sequence of Human Recombinant Cathepsin L (P07711 114-333): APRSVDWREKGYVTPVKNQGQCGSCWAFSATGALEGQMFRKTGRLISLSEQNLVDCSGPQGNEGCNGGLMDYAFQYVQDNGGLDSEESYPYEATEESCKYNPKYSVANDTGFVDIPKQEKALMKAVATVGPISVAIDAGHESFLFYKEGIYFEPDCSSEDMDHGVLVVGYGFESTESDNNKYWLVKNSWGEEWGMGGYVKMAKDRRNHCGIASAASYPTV

Row | Compound | IC50 (recombinant M^Pro; [10]) [µM] | IC50 [1, 11] [µM] | IC50 [2, 12] [µM] | IC50 [3, 13] [µM] | IC50 [4, 14] [µM] | CC50 (in vitro [5]) [nM] | inhibition at 10 µM (recombinant M^Pro) [%] | inhibition at 10 µM (PL^Pro) [%] | also measured
1 | COc1cccc(-c2ccc(C(=O)N3C[C@@H]4CCC[C@@H]4[C@H]3C(=O)N[C@H](C#N)C[C@@H]3CCNC3=O)c(Cl)c2)c1 [22l] | 1.06 | > 10 | 0.538 | 1.07 | > 10 |  |  |  | 
2 | CC(C)C[C@H](NC(=O)c1ccc(-c2cccc3nn(C)cc23)cc1F)C(=O)N[C@H](C#N)C[C@@H]1CCNC1=O [18a] |  |  |  |  |  | > 100000 |  |  | IC50 (recombinant M^Pro; M^Pro IC50 (nM), Table 4): 0.163 µM; IC50 (recombinant M^Pro; [15]): 0.162 µM; IC50 ([1]; Table 4, read-out: CatB IC50): 0.142 µM; IC50 ([2]; Table 4, read-out: CatS IC50): 0.0279 µM; IC50 ([3]; Table 4, read-out: CatK IC50): 0.0485 µM; IC50 ([4]; Table 4, read-out: CatL IC50): > 10 µM
3 | COc1cccc(-c2ccc(C(=O)N3C[C@H]4[C@@H]([C@H]3C(=O)N[C@H](C#N)C[C@@H]3CCNC3=O)C4(C)C)c(Cl)c2)c1 [22f] | 0.12 | > 10 | 1.29 | 4.52 | > 10 | > 100000 |  |  | microsomal CLint at 1 μM (in vitro [6]): 450 µL/min/mg; IC50 (recombinant M^Pro; [16]): 0.12 µM; activity against cathepsin B (in words) [1]: completely abolished; logD (physchem [7]): 3.5; microsomal CLint at 1 μM (in vitro [8]): 209 µL/min/mg; solubility kinetic (physchem [9]): 82 µM (≈ 43.9 µg/mL)
4 | COc1cccc(-c2ccc(C(=O)N[C@@H](CC(C)C)C(=O)N[C@H](C#N)C[C@@H]3CCNC3=O)cc2)c1 [6e] |  |  |  |  |  | > 100000 | > 95 | < 50 | IC50 (recombinant M^Pro; M^Pro IC50 (μM), Table 2): 0.786 µM; IC50 (recombinant M^Pro; [17]): 0.786 µM
5 | COc1ccc(-c2ccc(C(=O)N[C@@H](CC(C)C)C(=O)N[C@H](C#N)C[C@@H]3CCNC3=O)c(Cl)c2)cc1 [18r] |  |  |  |  |  | 40100 |  |  | IC50 (recombinant M^Pro; M^Pro IC50 (nM), Table 4): 0.045 µM; IC50 (recombinant M^Pro; [15]): 0.045 µM; IC50 ([1]; Table 4, read-out: CatB IC50): 0.193 µM; IC50 ([2]; Table 4, read-out: CatS IC50): 0.0246 µM; IC50 ([3]; Table 4, read-out: CatK IC50): 0.123 µM; IC50 ([4]; Table 4, read-out: CatL IC50): > 10 µM
6 | COc1cccc(-c2ccc(C(=O)N[C@@H](CC3CCCCC3)C(=O)N[C@H](C#N)C[C@@H]3CCNC3=O)c(F)c2)c1 [23b] | 0.691 | 0.238 | 0.059 | 1.34 | > 10 |  |  |  | 
7 | COc1cccc(-c2ccc(C(=O)N[C@@H](CC(C)C)C(=O)N[C@H](C#N)C[C@@H]3CCNC3=O)c(Cl)c2)c1 [18n] |  | 0.115 | 0.015 | 0.329 |  | > 100000 |  |  | microsomal CLint at 1 μM (in vitro [6]): 111 µL/min/mg; IC50 (recombinant M^Pro; M^Pro IC50 (nM), Table 4): 0.049 µM; IC50 (recombinant M^Pro; [15]): 0.049 µM; IC50 (recombinant M^Pro; [16]): 0.049 µM; IC50 ([1]; Table 4, read-out: CatB IC50): 0.115 µM; IC50 ([2]; Table 4, read-out: CatS IC50): 0.0155 µM; logD (physchem [7]): 3.1; microsomal CLint at 1 μM (in vitro [8]): 40 µL/min/mg; IC50 ([3]; Table 4, read-out: CatK IC50): 0.329 µM; solubility kinetic (physchem [9]): 34 µM (≈ 17.4 µg/mL); IC50 ([4]; Table 4, read-out: CatL IC50): > 10 µM
8 | COc1ccc(-c2ccc(C(=O)N3C[C@H]4[C@@H]([C@H]3C(=O)N[C@H](C#N)C[C@@H]3CCNC3=O)C4(C)C)c(Cl)c2)cc1 [22e] | 0.087 | > 10 | 1.03 | 2.08 | > 10 | > 100000 |  |  | microsomal CLint at 1 μM (in vitro [6]): 450 µL/min/mg; IC50 (recombinant M^Pro; [16]): 0.087 µM; activity against cathepsin B (in words) [1]: completely abolished; logD (physchem [7]): 3.4; microsomal CLint at 1 μM (in vitro [8]): 183 µL/min/mg; solubility kinetic (physchem [9]): 97 µM (≈ 51.9 µg/mL)
9 | CC(C)C[C@H](NC(=O)c1ccc(-c2ccc3c(cnn3C)c2)cc1)C(=O)N[C@H](C#N)C[C@@H]1CCNC1=O [6l] |  |  |  |  |  | > 100000 | > 95 | < 50 | IC50 (recombinant M^Pro; read-out: M^Pro IC50, Table 2): 0.56 µM; IC50 (recombinant M^Pro; read-out: M^Pro IC50, recombinant M^Pro, 20 μM QS1 (Ac-Abu-Tle-Leu-Gln-ACC) substrate, Table 1): 0.56 µM
10 | COc1ccc(-c2ccc(C(=O)N[C@@H](CC3CCCCC3)C(=O)N[C@H](C#N)C[C@@H]3CCNC3=O)c(Cl)c2)cc1 [23c] | 0.077 | 0.104 | 0.011 | 1.52 | > 10 | > 100000 |  |  | IC50 (recombinant M^Pro; [16]): 0.077 µM
11 | COc1ccc(-c2ccc(C(=O)N[C@@H](CC3CCCCC3)C(=O)N[C@H](C#N)C[C@@H]3CCNC3=O)c(F)c2)cc1 [23a] | 0.807 | > 10 | 0.016 | > 10 | > 10 |  |  |  | 
12 | COc1ccc(-c2ccc(C(=O)N[C@@H](CC(C)C)C(=O)N[C@H](C#N)C[C@@H]3CCNC3=O)c(F)c2)cc1 [18b] |  |  |  |  |  | 51600 |  |  | IC50 (recombinant M^Pro; M^Pro IC50 (nM), Table 4): 0.178 µM; IC50 (recombinant M^Pro; [15]): 0.178 µM; IC50 ([1]; Table 4, read-out: CatB IC50): 0.106 µM; IC50 ([2]; Table 4, read-out: CatS IC50): 0.232 µM; IC50 ([3]; Table 4, read-out: CatK IC50): 0.077 µM; IC50 ([4]; Table 4, read-out: CatL IC50): > 10 µM
13 | COc1cccc(-c2ccc(C(=O)N[C@@H](CC3CCCCC3)C(=O)N[C@H](C#N)C[C@@H]3CCNC3=O)cc2)c1 [12k] |  | > 10 | 0.011 | > 10 | > 10 |  | < 95 | < 50 | IC50 (recombinant M^Pro; [17]): 2.01 µM
14 | CC(C)C[C@H](NC(=O)c1ccc(-c2cccc3nn(C)cc23)cc1)C(=O)N[C@H](C#N)C[C@@H]1CCNC1=O [6j] |  |  |  |  |  | > 100000 | > 95 | < 50 | IC50 (recombinant M^Pro; M^Pro IC50 (μM), Table 2): 0.622 µM; IC50 (recombinant M^Pro; [17]): 0.622 µM
15 | COc1ccc(-c2ccc(C(=O)N[C@@H](CC3CCCCC3)C(=O)N[C@H](C#N)C[C@@H]3CCNC3=O)cc2)cc1 [12l] |  | > 10 | 0.006 | 1.64 | > 10 |  | < 95 | < 50 | IC50 (recombinant M^Pro; [17]): 1.76 µM
16 | COc1ccc(-c2ccc(C(=O)N3C[C@@H]4CCC[C@@H]4[C@H]3C(=O)N[C@H](C#N)C[C@@H]3CCNC3=O)c(Cl)c2)cc1 [22k] | 0.743 | > 10 | 0.718 | 0.68 | > 10 |  |  |  | 
17 | COc1ccc(-c2ccc(C(=O)N[C@@H](CC(C)C)C(=O)N[C@H](C#N)C[C@@H]3CCNC3=O)cc2)cc1OC [6f] |  |  |  |  |  | > 100000 | > 95 | < 50 | IC50 (recombinant M^Pro; M^Pro IC50 (μM), Table 2): 0.859 µM; IC50 (recombinant M^Pro; [17]): 0.859 µM
18 | COc1cccc(-c2ccc(C(=O)N[C@@H](CC3CCCCC3)C(=O)N[C@H](C#N)C[C@@H]3CCNC3=O)c(Cl)c2)c1 [23d] | 0.094 | 0.137 | 0.011 | 0.887 | > 10 | > 100000 |  |  | 
